Here are results for 32 compounds from patent publication US20240327392A1, “HETEROCYCLOALKYL-SUBSTITUTED POLYHETEROAZOLE DERIVATIVES AS MEDICAMENTS FOR TREATING AND/OR PREVENTING RS VIRUS INFECTIONS” (ALBIUS SCIENCES ALPHA PRIVATE LIMITED, priority 2021, published 2024).

SMILES strings stand for the structures. Some results are limits rather than exact numbers.

The first assay has as its system human RS virus A2 strain. The assay can be described thus: In vitro test for anti-RS virus proliferation inhibitory activity (quantitative RT-PCR of RS virus RNA copy number in infected Vero cells). The assay is classed as cell-based. Conditions: 72 h; Vero cells infected with human RS virus A2 strain, 3 days of incubation, RS virus N gene RNA copy number by quantitative RT-PCR; read-out: Anti-RS virus Activity. The method, then:
A mixture of Vero cells (3.4×10^5 cells/mL) and human RS virus A2 strain (1.7×10^4 TCID50/mL) (EMEM medium supplemented with 10% FCS) was added to a 96-well plate at 50 μL/well, and the 10% FCS-supplemented EMEM medium adjusted to the desired final concentration of the compounds to be tested was added at 50 μL/well, followed by incubating the plate at 37° C. in the presence of 5% CO2 at 37° C. After 3 days of incubation, the supernatant was removed, the cells were washed with PBS(−), and the cell lysis buffer supplied with the SingleShot (registered trademark) Cell Lysis Kit (Bio-Rad) was added dropwise at 50 μL/well to lysis the cells thereby providing the cell lysate.
Human RS virus RNA copy number in the cell lysate was determined by quantitative RT-PCR using iTaq Universal SYBR Green One-Step Kit (Bio-Rad). Specifically, primers targeting human RS virus N gene (Rameix-Welti et al, Nat Commun5: 5104, 2014. doi: 10.1038/ncomms6104) was used to prepare the reaction solution according to the instructions provided with the kit, and a 96-well PikoReal Real-Time PCR System (TCR0096, Thermo Fisher Scientific) was used to detect PCR reaction and signal assay.
The copy number was calculated by the relative method using the comparative Ct method using compound-free virus-infected cells as controls.
`CC(C)(C)OC(=O)N1C[C@H](O)C[C@H]1c1nc(CCCc2ccccc2)no1` [Compound 3-1, 3-(3-phenylpropyl)-5-[(2S,4R)-1-tert-butoxycarbonyl-4-hydroxypyrrolidin-2-yl]-1,2,4-oxadiazole]: the IC50 was above 50 µM.

As for `CC(C)(C)O[C@@H]1C[C@@H](c2nc(CCCc3ccccc3)no2)N(C(=O)c2ccc3cc(C(=O)N4C[C@H](OC(C)(C)C)C[C@H]4c4nc(CCCc5ccccc5)no4)ccc3c2)C1` [Compound 4-4, Naphthalene-2,6-diylbis (((2S,4R)-4-(tert-butoxy)-2-(3-(3-phenylpropyl)-1,2,4-oxadiazol-5-yl)pyrrolidin-1-yl)methanone)], the IC50 is above 50 µM.

On to `O=S(=O)(c1ccccc1)N1CCC[C@H]1c1nc(CCCc2ccccc2)no1` [Compound 1D, 3-(3-phenylpropyl)-5-[(2S)-1-benzenesulfonylpyrrolidin-2-yl]-1,2,4-oxadiazole], for which the IC50 fell in the range of 10 to 50 µM.

With `O=S(=O)(Cc1ccccc1)N1C[C@H](O)C[C@H]1c1nc(CCCc2ccccc2)no1` [Compound 3E, 3-(3-phenylpropyl)-5-[(2S,4R)-1-benzylsulfonyl-4-hydroxypyrrolidin-2-yl]-1,2,4-oxadiazole], the IC50 was 10 to 50 µM.

The same assay, now with this note: 72 h; Vero cells infected with human RS virus A2 strain, 3 days of incubation, RS virus RNA copy number by quantitative RT-PCR; read-out: Anti-RS virus Activity.
`CC(C)CS(=O)(=O)N1CCC[C@H]1c1nc(CNC(=O)c2cccc3ccccc23)no1` [Compound 11A, 3-[(1-naphthoylamino)methyl]-5-[(2S)-1-isobutylsulfonylpyrrolidin-2-yl]-1,2,4-oxadiazole]: the IC50 is below 10 µM.

`CCOC(=O)C1CCN(S(=O)(=O)N2CC3(CC3)C[C@H]2c2nc(CCCc3ccccc3)no2)CC1` [Compound 5AC, ethyl (S)-1-((6-(3-(3-phenylpropyl)-1,2,4-oxadiazole-5-yl)-5-azaspiro[2.4]heptan-5-yl)sulfonyl)piperidin-4-carboxylate]: the IC50 fell in the range of 10 to 50 µM.

Regarding `CC(C)(C)OC(=O)N1C[C@H](c2ccccc2)C[C@H]1c1nc(Cc2ccccc2)no1` [Compound C1-7-1, Tert-butyl (2S,4S)-2-(3-benzyl-1,2,4-oxadiazol-5-yl)-4-phenylpyrrolidine-1-carboxylate], the IC50 was below 10 µM.

`CCOC(=O)C1CCN(S(=O)(=O)N2CCCC[C@H]2c2nc(CCCc3ccccc3)no2)CC1` [Compound 2AC, Ethyl (S)-1-((2-(3-(3-phenylpropyl)-1,2,4-oxadiazol-5-yl)piperidin-1-yl)sulfonyl)piperidine-4-carboxylate]: the IC50 was 10 to 50 µM.

`Cc1oc([C@@H]2CCCCN2S(=O)(=O)C2CCCCC2)nc1C(=O)O` [Compound 33B, (S)-2-(1-(Cyclohexylsulfonyl)piperidin-2-yl)-5-methyl oxazole-4-carboxylic acid]: the IC50 lay within 10 to 50 µM.

Take `O=C(Oc1ccccc1)N1CCC[C@H]1c1nc(CCCc2ccccc2)no1` [Compound 1M, Phenyl (S)-2-(3-(3-phenylpropyl)-1,2,4-oxadiazol-5-yl)pyrrolidine-1-carboxylate]: the IC50 fell in the range of 10 to 50 µM.

On to `COc1ccc(CCCc2noc([C@@H]3CCCCN3C(=O)OC(C)(C)C)n2)cc1OC` [Compound 22-1, Tert-butyl (S)-2-(3-(3-(3,4-dimethoxyphenyl)propyl)-1,2,4-oxadiazol-5-yl)piperidine-1-carboxylate], for which the IC50 was below 10 µM.

Turning to `O=C(NCc1ccccc1)N1[C@@H]2CC[C@@H](C2)[C@H]1c1nnc(Cc2c[nH]c3ccccc23)[nH]1` [Compound 24F, (1R,3S,4S)-3-(5-((1H-indol-3-yl)methyl)-4H-1,2,4-triazol-3-yl)-N-benzyl-2-azabicyclo[2.2.1]heptane-2-carboxamide], the IC50 was in the range of 10 to 50 µM.

In the case of `CC(C)(C)NC(=O)N1CCCC[C@H]1c1nc(CCc2ccncc2)no1` [Compound 12H, (S)—N-(tert-butyl)-2-(3-(2-(pyridin-4-yl)ethyl)-1,2,4-oxadiazol-5-yl)piperidine-1-carboxamide], the IC50 fell in the range of 10 to 50 µM.

Regarding `CC(=O)N1CCC[C@H]1c1nc(CCCc2ccccc2)no1` [Compound 1R], the IC50 fell in the range of 10 to 50 µM.

Consider `O=S(=O)(C1CCOCC1)N1CC2(CC2)C[C@H]1c1nc(CCCc2ccccc2)no1` [Compound 5AP, (S)-3-(3-phenylpropyl)-5-(5-((tetrahydro-2H-pyran-4-yl)sulfonyl)-5-azaspiro[2.4]heptan-6-yl)-1,2,4-oxadiazole], for which the IC50 lay in the range of 10 to 50 µM.

As to `CC(=O)N1CCCC[C@H]1c1nc(CCCc2ccccc2)no1` [Compound 2R], the IC50 was 10 to 50 µM.

With `CN(C)c1ccc(S(=O)(=O)N2CC3(CC3)C[C@H]2c2nc(CCCc3ccccc3)no2)cc1` [Compound 5AK, (S)-N,N-dimethyl-4-((6-(3-(3-phenylpropyl)-1,2,4-oxadiazole-5-yl)-5-azaspiro[2.4]heptan-5-yl)sulfonyl)aniline], the IC50 was below 10 µM.

Consider `CC(C)CS(=O)(=O)N1[C@@H]2CC[C@@H](C2)[C@H]1c1nc(CCc2ccccc2)no1` [Compound 14A, 5-((1R,3S,4S)-2-(isobutylsulfonyl)-2-azabicyclo[2.2.1]heptan-3-yl)-3-phenethyl-1,2,4-oxadiazole], for which the IC50 lay within 10 to 50 µM.

For `O=S(=O)(N1CCOCC1)N1CC2(CC2)C[C@H]1c1nc(CCCc2ccccc2)no1` [Compound 5AE, (S)-4-((6-(3-(3-phenylpropyl)-1,2,4-oxadiazole-5-yl)-5-azaspiro[2.4]heptan-5-yl)sulfonyl)morpholine], the IC50 was 10 to 50 µM.

As to `NC(=O)[C@H]1C[C@@H](c2nc(CCCc3ccccc3)no2)N(S(=O)(=O)c2ccc(F)cc2)C1` [Compound 42AJ, (3S,5S)-1-((4-fluorophenyl)sulfonyl)-5-(3-(3-phenylpropyl)-1,2,4-oxadiazol-5-yl)pyrrolidine-3-carboxamide], the IC50 was in the range of 10 to 50 µM.

Regarding `CC(C)(C)OC(=O)N1CC(CS(=O)(=O)N2CC3(CC3)C[C@H]2c2nc(CCCc3ccccc3)no2)C1` [Compound 5AM, tert-buthyl (S)-3-(((6-(3-(3-phenylpropyl)-1,2,4-oxadiazole-5-yl)-5-azaspiro[2.4]heptan-5-yl)sulfonyl)methyl)azetidin-1-carboxylate], the IC50 is below 10 µM.

For `O=S(=O)(C1CCCCC1)N1CC(c2ccccc2)C[C@H]1c1nc(CCCc2ccccc2)no1` (stereo in doubt) [Compound 7B, 3-(3-Phenylpropyl)-5-[(2S,4S)-1-cyclohexylsulfonyl-4-phenylpyrrolidin-2-yl]-1,2,4-oxadiazole], the IC50 is below 10 µM.

Turning to `COc1ccc(S(=O)(=O)N2C[C@H](c3ccccc3)C[C@H]2c2nc(CCCc3ccccc3)no2)cc1` [Compound 7AI, 5-((2S,4S)-1-((4-methoxyphenyl)sulfonyl)-4-phenylpyrrolidin-2-yl)-3-(3-phenylpropyl)-1,2,4-oxadiazole], the IC50 was below 10 µM.

On to `O=C(OCc1ccccc1)N1CCC[C@H]1c1nc(CCCc2ccccc2)no1` [Compound 1J, Benzyl (S)-2-(3-(3-phenylpropyl)-1,2,4-oxadiazol-5-yl) pyrrolidine-1-carboxylate], for which the IC50 is below 10 µM.

For `Cc1oc([C@@H]2CCCCN2S(=O)(=O)C2CCCCC2)nc1C(=O)NCc1ccccc1` [Compound 34B, (S)—N-Benzyl-2-(1-(cyclohexylsulfonyl)piperidin-2-yl)-5-methyloxazole-4-carboxamide], the IC50 lay in the range of 10 to 50 µM.

Consider `O=C(NCc1cnc2ccccc2c1)N1[C@@H]2CC[C@@H](C2)[C@H]1c1nnc(Cc2cc3ccccc3[nH]2)[nH]1` [Compound 28AH], for which the IC50 fell in the range of 10 to 50 µM.

As for `COc1ccc(CCCc2noc([C@@H]3CCCCN3S(=O)(=O)C3CCCCC3)n2)cc1OC` [Compound 22B, (S)-5-(1-(cyclohexylsulfonyl)piperidin-2-yl)-3-(3-(3,4-dimethoxyphenyl)propyl)-1,2,4-oxadiazole], the IC50 is below 10 µM.

On to `O=S(=O)(Cc1ccccc1)N1CC(CC2CCC2)CC1c1nc(CCCc2ccccc2)no1` (centres unmarked) [Compound 6E, 3-(3-phenylpropyl)-5-(1-benzylsulfonyl-4-cyclobutylmethylpyrrolidin-2-yl)-1,2,4-oxadiazole], for which the IC50 is below 10 µM.

With `O=C(N1CC2(CC2)C[C@H]1c1nc(CCCc2ccccc2)no1)C(F)(F)F` [5D′, 3-(3-Phenylpropyl)-5-{(6S)-5-trifluoroacetyl-5-azaspiro[2.4]hept-6-yl}-1,2,4-oxadiazole], the IC50 is below 10 µM.

For `O=S(=O)(c1ccc(F)cc1)N1C[C@H](c2ccccc2)C[C@H]1c1nc(CCCc2ccccc2)no1` [Compound 7AJ], the IC50 is below 10 µM.

As for `COc1ccc(S(=O)(=O)N2C[C@H](F)C[C@H]2c2nc(CCCc3ccccc3)no2)cc1` [Compound 8AI, 5-((2S,4R)-4-fluoro-1-((4-methoxyphenyl)sulfonyl)pyrrolidin-2-yl)-3-(3-phenylpropyl)-1,2,4-oxadiazole], the IC50 was below 10 µM.

The same assay, now with this note: Vero, 72 h, read-out: Anti-RS virus Activity.
For `O=S(=O)(N1CCCCC1)N1CCCC[C@H]1c1nc(CCCc2ccccc2)no1` [Compound 2AD, (S)-3-(3-phenylpropyl)-5-(1-(piperidine-1-ylsulfonyl)piperidin-2-yl)-1,2,4-oxadiazole], the IC50 is below 10 µM.
